The source of these data is ChEMBL document CHEMBL5230096, “A comprehensive insight on the recent development of Cyclic Dependent Kinase inhibitors as anticancer agents” (Eur J Med Chem, 2020).

A word on the IC50: it is the point on the concentration scale where inhibition reaches its midpoint.

Assay [1] has as its system Panel NCI-60 (60 carcinoma cell lines). In words: Antiproliferative activity against human Panel NCI-60 (60 carcinoma cell lines) cells assessed as inhibition of cell growth at 0.00001 M incubated for 48 hrs by sulforhodamine B assay. Also noted: scale not given: the % may be the effect or the level left. Format: functional. The note with it: dose 10 µM.
Another assay addresses CDK2/Cyclin A2 (Homo sapiens, UniProt P24941). As to the kind of experiment: Inhibition of CDK2/cyclin A2 (unknown origin) using histone as substrate in presence of ATP by luminescent ADP detection assay. It counts as protein-complex assay.
In the next assay the test system is HeLa. As to the kind of experiment: Antiproliferative activity against human Hela cells assessed as reduction in cell viability by MTT assay. It counts as functional, cell-based. On the technique in general: Tetrazolium dyes change colour on reduction, which living cells bring about.
Assay [2] addresses Cyclin-dependent kinase 2/cyclin E1 (Homo sapiens, UniProt P24941). In words: Inhibition of CDK2/cyclin E1 (unknown origin) expressed in Sf9 cells using histone H1 as substrate in presence of ATP by microplate reader analysis.
Assay [3] relates to MCF7. As to the kind of experiment: Antiproliferative activity against human MCF7 cells assessed as reduction in cell proliferation incubated for 3 days by calcein AM staining based fluorescent analysis. It counts as functional. The following applies: MCF7, 72 h.
The subject of a further assay is K562. In words: Antiproliferative activity against human K562 cells assessed as reduction in cell proliferation incubated for 3 days by calcein AM staining based fluorescent analysis. It counts as functional. The following applies: K562, 72 h.
Assay [4] has as its system MCF7. As to the kind of experiment: Antiproliferative activity against human MCF7 cells assessed as reduction in cell proliferation incubated for 48 hrs by Sulfo-Rhodamine-B stain (SRB) assay. The note with it: MCF7, 48 h. It counts as functional, cell-based.
Assay [5] concerns the target Cyclin-dependent kinase 2 (Homo sapiens, UniProt P24941).
Description: Inhibition of CDK2 (unknown origin)

On to `COc1ccc(-n2c(-c3ccccc3)c(-c3ccccc3)c3c(SCC(=O)N/N=C\c4ccc(N(C)C)cc4)ncnc32)cc1`, for which the Activity in assay [1] was less than 50%.
Turning to `CN1CCN(C(=O)c2cnn(-c3cc(NCc4ccccc4)ncn3)c2)CC1`, the IC50 at CDK2/Cyclin A2 is less than 0.02 µM.
Still for that read-out and setting: to `O=C(Nc1ccc(F)cc1)c1cnn(-c2cc(NCc3ccccc3)ncn2)c1` belongs less than 0.02 µM.
In the case of `CCOC(=O)C1=C(Cn2cc(COc3ccccc3C3NC(=O)NC(CCl)=C3C(=O)OCC)nn2)NC(=O)NC1c1ccccc1F` (stereo not given), in the assay on HeLa, the IC50 is 18 µM.
As for `CCOC(=O)CSc1ncnc2c1c(-c1ccccc1)c(-c1ccccc1)n2-c1ccc(C)cc1`, the Activity in assay [1] is less than 50%.
As for `CCCCCSc1nc(OC(=O)c2ccccc2)c2cn[nH]c2n1`, the IC50 in assay [2] is 14.8 µM; with MCF7 [3], 18.9 µM; in the assay with K562 it was 19.8 µM.
Consider `O=C(Oc1nc(SCCc2ccccc2)nc2[nH]ncc12)c1cc2ccccc2o1`, for which the IC50 in the assay on MCF7 [3] is 18.9 µM; in the assay on K562 it was 19.8 µM.
`Cc1ccc(S(=O)(=O)Nc2ccc(-c3ccnc(Nc4ccc(S(=O)(=O)Nc5cc(C)no5)cc4)c3C#N)cc2)cc1`: in the assay on MCF7 [4], the 50% inhibitory concentration (IC50) amounted to 20.4 µM.
Consider `COc1ccc(-n2c(-c3ccccc3)c(-c3ccccc3)c3c(SCC(=O)N/N=C\c4ccccc4[N+](=O)[O-])ncnc32)cc1`, for which the Activity in assay [1] is less than 50%.
In the case of `O=C(c1cnn(-c2cc(NCc3ccccc3)ncn2)c1)N1CCOCC1`, the IC50 at CDK2/Cyclin A2 is less than 0.02 µM.
With `C[C@@H](CO)Nc1nc(N)c(N=O)c(OCC2CCCCC2)n1`, inhibition in assay [5] was half-maximal at 0.16 µM (IC50).
On to `CCCCCSc1nc(OC(=O)c2ccco2)c2cn[nH]c2n1`, for which the IC50 in assay [2] was 21.2 µM; in the assay on MCF7 [3], 18.9 µM; in the assay with K562, 19.8 µM.
Consider `O=[N+]([O-])c1cccc(Nc2nc(SCCc3ccccc3)nc3[nH]ncc23)c1`, for which the IC50 in assay [2] was 8.7 µM; in the assay with MCF7 [3] it was 19.2 µM; in the assay on K562, 19.9 µM.
For the compound `Clc1ccccc1Nc1nc(SCCc2ccccc2)nc2[nH]ncc12`, the IC50 is 7.8 µM in assay [2], 19.2 µM in the assay with MCF7 [3] and 19.9 µM with K562.
On to `CCOC(=O)C1=C(Cn2cc(COc3ccccc3C3NC(=O)NC(CCl)=C3C(=O)OCC)nn2)NC(=O)NC1c1ccc(O)c(OC)c1` (stereo not given), for which the IC50 with HeLa is 18 µM.
Take `O=C(Nc1ccc(O)cc1)c1cnn(-c2cc(NCc3ccccc3)ncn2)c1`: the IC50 at CDK2/Cyclin A2 is less than 0.02 µM.
Regarding `NS(=O)(=O)c1ccc(S(=O)(=O)Nc2cccc3c(Cl)c[nH]c23)cc1`, the IC50 with MCF7 [4] was 36.3 µM.
Consider `CCOC(=O)C1=C(CCl)NC(=O)NC1c1ccc(OCc2cn(CC3=C(C(=O)OCC)C(c4ccc([N+](=O)[O-])cc4)NC(=O)N3)nn2)cc1` (stereo not given), for which, in the assay with HeLa, the IC50 came to 18 µM.
As to `CCOC(=O)C1=C(Cn2cc(COc3ccccc3C3NC(=O)NC(CCl)=C3C(=O)OCC)nn2)NC(=O)NC1c1ccc([N+](=O)[O-])cc1` (stereo not given), the IC50 with HeLa worked out at 18 µM.
For the compound `Cc1ccc(-n2cc(-c3ccccc3)c3c(SCC(=O)N/N=C\c4ccccc4[N+](=O)[O-])ncnc32)cc1`, the Activity in assay [1] is reported as less than 50%.
Consider `C[C@@H](CO)Nc1nc(N)c(/[N+]([O-])=N/C#N)c(OCC2CCCCC2)n1`, for which, in assay [5], the IC50 was 0.3 µM.
For `CCCCCSc1nc(Nc2ccccc2Cl)c2cn[nH]c2n1`, the IC50 in assay [2] is 5.1 µM; in the assay with MCF7 [3] it was 19.2 µM; in the assay with K562, 19.9 µM.
On to `CCCCCSc1nc(Nc2ccc(SC)cc2)c2cn[nH]c2n1`, for which the results for the IC50 (in assay [2]; in the assay with MCF7 [3]; with K562) were 8.8 µM, 19.2 µM and 19.9 µM, respectively.
Take `CCCCCSc1nc(OC(=O)c2cc3ccccc3o2)c2cn[nH]c2n1`: the IC50 in assay [2] was 8.8 µM; in the assay with MCF7 [3], 18.9 µM; with K562 it was 19.8 µM.
`O=C1CC(=O)N(c2ccc(F)cc2)C(=S)N1C(=O)c1ccccc1`: it took 4.5 µM to reach half-maximal inhibition in assay [5] (IC50).
As for `COc1ccc(NC(=O)c2cnn(-c3cc(NCc4ccccc4)ncn3)c2)cc1`, the IC50 at CDK2/Cyclin A2 is less than 0.02 µM.
Take `CCCCCSc1nc(OC(=O)CC(C)(C)C)c2cn[nH]c2n1`: the results for the IC50 (in assay [2]; in the assay on MCF7 [3]; with K562) were 16.9 µM, 18.9 µM and 19.8 µM, respectively.
With `Cc1ccc(-n2cc(-c3ccccc3)c3c(SCC(=O)N/N=C\c4ccc(N(C)C)cc4)ncnc32)cc1`, the Activity in assay [1] is reported as less than 50%.
